pIC50: −log10 of the molar value.
Key:
[1] = biological target: T1, Recombinant STAT6 protein (STAT6(W123-T658)) (Homo sapiens, UniProt P42226); experiment: STAT6 Fluorescence Polarization (FP) Assay; type: binding; conditions: STAT6(W123-T658) 250 nM, probe 5-FAM-ApYKPFQDLI-NH2 2 nM, 45-minute incubation
T1 construct: STAT6(W123-T658)
T1 sequence (P42226 123-658): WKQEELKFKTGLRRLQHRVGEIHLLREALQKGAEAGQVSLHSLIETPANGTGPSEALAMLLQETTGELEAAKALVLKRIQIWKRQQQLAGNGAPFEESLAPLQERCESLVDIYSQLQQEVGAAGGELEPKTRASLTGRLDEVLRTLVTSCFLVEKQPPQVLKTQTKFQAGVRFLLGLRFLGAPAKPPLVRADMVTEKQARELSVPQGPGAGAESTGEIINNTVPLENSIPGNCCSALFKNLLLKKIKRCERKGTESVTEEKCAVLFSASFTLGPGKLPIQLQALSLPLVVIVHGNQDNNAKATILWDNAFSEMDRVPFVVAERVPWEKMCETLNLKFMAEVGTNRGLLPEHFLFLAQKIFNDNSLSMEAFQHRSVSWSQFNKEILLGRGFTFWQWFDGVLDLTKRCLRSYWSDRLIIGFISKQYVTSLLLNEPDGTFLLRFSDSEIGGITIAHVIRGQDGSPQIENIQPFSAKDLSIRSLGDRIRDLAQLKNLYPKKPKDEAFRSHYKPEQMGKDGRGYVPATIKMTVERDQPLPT
Method in brief: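 STAT6 (W123-T658) at 250 nM mixed with 2 nM 5-FAM-ApYKPFQDLI-NH2 probe in HEPES pH 7.4 buffer with DTT and Tween 20, 1% DMSO final. Polarization read after 45 min at room temperature; IC50 by nonlinear regression of mP versus log concentration, reported in bins A–D.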

[2] = biological target: T2, Recombinant STAT3 protein (STAT3(G127-I722)) (Homo sapiens, UniProt P40763); experiment: STAT3 Fluorescence Polarization (FP) Assay; type: binding; conditions: STAT3(G127-I722) 25 nM, probe 5-FAM-GpYLPQTV-NH2 2 nM, 45-minute incubation
T2 construct: STAT3(G127-I722)
T2 sequence (P40763 127-722, species assumed): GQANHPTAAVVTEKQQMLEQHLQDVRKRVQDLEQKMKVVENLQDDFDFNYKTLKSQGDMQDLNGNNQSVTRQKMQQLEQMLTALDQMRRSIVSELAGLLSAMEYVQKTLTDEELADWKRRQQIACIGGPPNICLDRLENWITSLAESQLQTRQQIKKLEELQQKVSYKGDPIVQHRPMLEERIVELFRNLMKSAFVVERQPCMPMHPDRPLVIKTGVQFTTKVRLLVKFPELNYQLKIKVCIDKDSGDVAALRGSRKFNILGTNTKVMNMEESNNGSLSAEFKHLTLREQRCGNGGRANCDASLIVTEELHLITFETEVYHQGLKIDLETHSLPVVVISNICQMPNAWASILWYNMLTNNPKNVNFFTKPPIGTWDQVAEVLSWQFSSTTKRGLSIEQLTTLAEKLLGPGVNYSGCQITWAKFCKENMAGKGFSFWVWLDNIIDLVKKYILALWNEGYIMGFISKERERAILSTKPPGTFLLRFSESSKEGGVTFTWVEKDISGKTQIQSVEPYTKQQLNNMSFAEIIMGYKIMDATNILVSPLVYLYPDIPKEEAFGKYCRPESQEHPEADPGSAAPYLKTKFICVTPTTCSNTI
Method in brief: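 STAT3(G127-I722) at 25 nM and 5-FAM-GpYLPQTV-NH2 probe at 2 nM in HEPES pH 7.4 buffer with NaCl, EDTA, Tween 20, DTT; 1% DMSO. FP read after 45 min at room temperature; IC50 by nonlinear regression of mP vs log concentration, binned A ≤100 nM to D >10 μM.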

Structure (SMILES) | pIC50 [1] | pIC50 [2]
C[C@]12CC[C@H](NC(=O)c3cc4cc(CP(=O)(O)O)ccc4s3)C(=O)N3[C@H](CC[C@H]3C(=O)N3CC(c4cccnc4)C3)[C@H]1C2 [Example 235, ((2-(((3S,6S,8aR,9aS,9bR)-8a-methyl-5-oxo-3-(3-(pyridin-3-yl)azetidine-1-carbonyl)decahydro-1H-cyclopropa[c]pyrrolo[1,2-a]azocin-6-yl)carbamoyl)benzo[b]thiophen-5-yl)methyl)phosphonic acid] | < 4.52 | 6.00 to 7.00
COc1ccncc1C1CN(C(=O)[C@@H]2CC[C@@H]3C[C@@H]4C[C@@H]4C[C@H](NC(=O)c4cc5cc([C@H](F)P(=O)(O)O)ccc5s4)C(=O)N32)C1 (single isomer, unassigned) [Example 353] | 4.52 to 5.52 | > 7.00
O=C(N[C@H]1C[C@@H]2C[C@@H]2C[C@H]2CC[C@@H](C(=O)Nc3ccc(-c4ccccc4)cc3)N2C1=O)c1cc2cc(C(F)(F)P(=O)(O)O)ccc2s1 [Example 3, ((2-(((3S,6S,7aS,8aR,9aR)-3-([1,1′-biphenyl]-4-ylcarbamoyl)-5-oxodecahydro-1H-cyclopropa[d]pyrrolo[1,2-a]azocin-6-yl)carbamoyl)benzo[b]thiophen-5-yl)difluoromethyl)phosphonic acid] | 5.52 to 6.52 | 6.00 to 7.00
O=C(N[C@H]1C[C@H]2C[C@H]2C[C@H]2CC[C@@H](C(=O)N3CC[C@H](c4cnccc4F)C3)N2C1=O)c1cc2cc(C(F)P(=O)(O)O)ccc2s1 (stereo partly drawn) [Example 313, (fluoro(2-(((3S,6S,7aR,8aS,9aR)-3-((R)-3-(4-fluoropyridin-3-yl)pyrrolidine-1-carbonyl)-5-oxodecahydro-1H-cyclopropa[d]pyrrolo[1,2-a]azocin-6-yl)carbamoyl)benzo[b]thiophen-5-yl)methyl)phosphonic acid] | 5.52 to 6.52 | > 7.00
Cn1cc(OC2CN(C(=O)[C@@H]3CC[C@@H]4C[C@H]5C[C@H]5C[C@H](NC(=O)c5cc6cc(CP(=O)(O)O)ccc6s5)C(=O)N43)C2)cn1 [Example 335, ((2-(((3S,6S,7aS,8aR,9aR)-3-(3-((1-methyl-1H-pyrazol-4-yl)oxy)azetidine-1-carbonyl)-5-oxodecahydro-1H-cyclopropa[d]pyrrolo[1,2-a]azocin-6-yl)carbamoyl)benzo[b]thiophen-5-yl)methyl)phosphonic acid] | < 4.52 | 5.00 to 6.00
O=C(N[C@H]1C[C@H]2C[C@H]2C[C@H]2CC[C@@H](C(=O)N3CC(c4cccnc4)C3)N2C1=O)c1cc2cc(CP(=O)(O)O)ccc2s1 [Compound 22, ((2-(((3S,6S,7aR,8aS,9aR)-5-oxo-3-(3-(pyridin-3-yl)azetidine-1-carbonyl)decahydro-1H-cyclopropa[d]pyrrolo[1,2-a]azocin-6-yl)carbamoyl)benzo[b]thiophen-5-yl)methyl)phosphonic acid] | < 4.52 | 6.00 to 7.00
CC(=O)N1CC2C1CCN2C(=O)[C@@H]1CC[C@@H]2C[C@H]3C[C@H]3C[C@H](NC(=O)c3cc4cc(CP(=O)(O)O)ccc4s3)C(=O)N21 (stereo partly drawn) [Example 260, ((2-(((3S,6S,7aS,8aR,9aR)-3-(6-acetyl-2,6-diazabicyclo[3.2.0]heptane-2-carbonyl)-5-oxodecahydro-1H-cyclopropa[d]pyrrolo[1,2-a]azocin-6-yl)carbamoyl)benzo[b]thiophen-5-yl)methyl)phosphonic acid] | < 4.52 | 5.00 to 6.00
O=C(N[C@H]1C[C@@H]2C[C@@H]2C[C@H]2CC[C@@H](C(=O)N3CC(C(O)c4ccccc4)C3)N2C1=O)c1cc2cc(CP(=O)(O)O)ccc2s1 (stereo partly drawn) [Example 365, ((2-(((3S,6S,7aS,8aR,9aR)-3-(3-(hydroxy(phenyl)methyl)azetidine-1-carbonyl)-5-oxodecahydro-1H-cyclopropa[d]pyrrolo[1,2-a]azocin-6-yl)carbamoyl)benzo[b]thiophen-5-yl)methyl)phosphonic acid] | 4.52 to 5.52 | 5.00 to 6.00
O=C(N[C@H]1C[C@@H]2C[C@@H]2CC2CC[C@@H](C(=O)N3CC(c4cncnc4N4CCC4)C3)N2C1=O)c1cc2cc([C@H](F)P(=O)(O)O)ccc2s1 (single isomer, unassigned) [Example 402] | 5.52 to 6.52 | > 7.00
O=C(N[C@H]1C[C@@H]2C[C@@H]2[C@H]2CC[C@@H](C(=O)N3CC(c4cccnc4)C3)N2C1=O)c1cc2cc(C(F)(F)P(=O)(O)O)ccc2s1 [Compound 67, (difluoro(2-(((3S,6S,7aS,8aS,8bR)-5-oxo-3-(3-(pyridin-3-yl)azetidine-1-carbonyl)decahydrocyclopropa[c]pyrrolo[1,2-a]azepin-6-yl)carbamoyl)benzo[b]thiophen-5-yl)methyl)phosphonic acid] | 5.52 to 6.52 | > 7.00
CC(C)C1(c2ccccc2)CN(C(=O)[C@@H]2CC[C@@H]3C[C@@H]4C[C@@H]4C[C@H](NC(=O)c4cc5cc(C(F)(F)P(=O)(O)O)ccc5s4)C(=O)N32)C1 [Compound 79, (difluoro(2-(((3S,6S,7aR,8aS,9aR)-3-(3-isopropyl-3-phenylazetidine-1-carbonyl)-5-oxodecahydro-1H-cyclopropa[d]pyrrolo[1,2-a]azocin-6-yl)carbamoyl)benzo[b]thiophen-5-yl)methyl)phosphonic acid] | 4.52 to 5.52 | > 7.00

Next, values leading:

pIC50 [1] | pIC50 [2] | Structure (SMILES)
5.52 to 6.52 | > 7.00 | O=C(N[C@H]1C[C@@H]2C[C@@H]2C[C@H]2CC[C@@H](C(=O)N[C@@H]3CCN(c4cccnn4)C3)N2C1=O)c1cc2cc(C(F)(F)P(=O)(O)O)ccc2s1 [Compound 51, (difluoro(2-(((3S,6S,7aS,8aR,9aR)-5-oxo-3-(((R)-1-(pyridazin-3-yl)pyrrolidin-3-yl)carbamoyl)decahydro-1H-cyclopropa[d]pyrrolo[1,2-a]azocin-6-yl)carbamoyl)benzo[b]thiophen-5-yl)methyl)phosphonic acid]
5.52 to 6.52 | > 7.00 | O=C(N[C@H]1C[C@H]2C[C@H]2C[C@H]2CC[C@@H](C(=O)N[C@@H]3CCN(c4cccnc4)C3)N2C1=O)c1cc2cc(C(F)(F)P(=O)(O)O)ccc2s1 [Compound 47, (difluoro(2-(((3S,6S,7aR,8aS,9aR)-5-oxo-3-(((R)-1-(pyridin-3-yl)pyrrolidin-3-yl)carbamoyl)decahydro-1H-cyclopropa[d]pyrrolo[1,2-a]azocin-6-yl)carbamoyl)benzo[b]thiophen-5-yl)methyl)phosphonic acid]
5.52 to 6.52 | 6.00 to 7.00 | O=C(N[C@H]1C[C@@H]2C[C@@H]2C[C@H]2CC[C@@H](C(=O)N3CCN(C(=O)[C@@H]4CCOC4)CC3)N2C1=O)c1cc2cc(C(F)(F)P(=O)(O)O)ccc2s1 [Example 7, (difluoro(2-(((3S,6S,7aS,8aR,9aR)-5-oxo-3-(4-((R)-tetrahydrofuran-3-carbonyl)piperazine-1-carbonyl)decahydro-1H-cyclopropa[d]pyrrolo[1,2-a]azocin-6-yl)carbamoyl)benzo[b]thiophen-5-yl)methyl)phosphonic acid]
5.52 to 6.52 | > 7.00 | O=C(N[C@H]1C[C@@H]2C[C@@H]2C[C@H]2CC[C@@H](C(=O)N3CC4C3CCN4c3cccnc3)N2C1=O)c1cc2cc(C(F)(F)P(=O)(O)O)ccc2s1 (stereo partly drawn) [Example 274, (difluoro(2-(((3S,6S,7aS,8aR,9aR)-5-oxo-3-(2-(pyridin-3-yl)-2,6-diazabicyclo[3.2.0]heptane-6-carbonyl)decahydro-1H-cyclopropa[d]pyrrolo[1,2-a]azocin-6-yl)carbamoyl)benzo[b]thiophen-5-yl)methyl)phosphonic acid]
4.52 to 5.52 | 6.00 to 7.00 | CC(=O)N1CCC2(C1)CN(C(=O)[C@@H]1CC[C@@H]3C[C@H]4C[C@H]4C[C@H](NC(=O)c4cc5cc(C(F)(F)P(=O)(O)O)ccc5s4)C(=O)N31)C2 [Compound 92, ((2-(((35,6S,7aS,8aR,9aR)-3-(6-acetyl-2,6-diazaspiro[3.4]octane-2-carbonyl)-5-oxodecahydro-1H-cyclopropa[d]pyrrolo[1,2-a]azocin-6-yl)carbamoyl)benzo[b]thiophen-5-yl)difluoromethyl)phosphonic acid]
≥ 6.52 | 6.00 to 7.00 | N#C[C@@H]1CN(C(=O)[C@@H]2CC[C@@H]3C[C@@H]4C[C@@H]4C[C@H](NC(=O)c4cc5cc(C(F)(F)P(=O)(O)O)ccc5s4)C(=O)N32)C[C@H]1c1ccccc1 (relative stereo) [Compound 11, ((2-(((3S,6S,7aR,8aS,9aR)-3-((rel-trans)-3-cyano-4-phenylpyrrolidine-1-carbonyl)-5-oxodecahydro-1H-cyclopropa[d]pyrrolo[1,2-a]azocin-6-yl)carbamoyl)benzo[b]thiophen-5-yl)difluoromethyl)phosphonic acid]
